# Experimental data: PubChem BioAssay AID256 (DTP/NCI, 2004)
# Where “and” joins values, the source holds several entries; their conditions need not be identical. Equal entries are not always repeated. Inconclusive results and toxic doses are left out.
# Test system: CD2F1 mice, L1210 leukemia ip, survival T/C
# Test: NCI In Vivo Anticancer Drug Screen. Data for tumor model L1210 Leukemia (intraperitoneal) in CD2F1 (CDF1) mice
# Conditions: higher = longer survival
# Procedure, shortened: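 Ratio T/C, where T is the treated-group value and C the vehicle-dosed control value, from mice implanted with a transplantable tumor.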
# [1] = endpoint: mean survival time, dose: 50.0 mg/kg/injection, schedule: Q01DX009 (ip), vehicle: saline with Tween-80
# [2] = endpoint: mean survival time, dose: 100.0 mg/kg/injection, schedule: Q01DX009 (ip), vehicle: saline with Tween-80
# [3] = endpoint: mean survival time, dose: 200.0 mg/kg/injection, schedule: Q01DX009 (ip), vehicle: saline with Tween-80
# [4] = endpoint: mean survival time, dose: 400.0 mg/kg/injection, schedule: Q01DX009 (ip), vehicle: saline with Tween-80
# [5] = endpoint: mean survival time, dose: 20.0 mg/kg/injection, schedule: Q01DX009 (ip), vehicle: saline with Tween-80
smiles,measurement,setting,value
O=[N+]([O-])O.S=C([SH2+])[n+]1ccccc1.S=C([SH2+])[n+]1ccccc1.[NH-]C1CCCCC1[NH-].[Pt+4],T/C,"endpoint: median survival time, dose: 3.12 mg/kg/injection, schedule: Q04DX003 (ip), vehicle: saline",101 % of control
same,T/C,"endpoint: median survival time, dose: 6.25 mg/kg/injection, schedule: Q04DX003 (ip), vehicle: saline",109 % of control
same,T/C,"endpoint: median survival time, dose: 12.5 mg/kg/injection, schedule: Q04DX003 (ip), vehicle: saline",100 % of control
same,T/C,"endpoint: median survival time, dose: 25.0 mg/kg/injection, schedule: Q04DX003 (ip), vehicle: saline",90 % of control
same,T/C,"endpoint: median survival time, dose: 50.0 mg/kg/injection, schedule: Q04DX003 (ip), vehicle: saline",95 % of control
same,T/C,"endpoint: median survival time, dose: 100.0 mg/kg/injection, schedule: Q04DX003 (ip), vehicle: saline",106 % of control
same,T/C,"endpoint: median survival time, dose: 200.0 mg/kg/injection, schedule: Q04DX003 (ip), vehicle: saline",109 % of control
Cc1ccccc1N=Nc1ccc(O)cc1,T/C,[1],105 % of control
same,T/C,"endpoint: mean survival time, dose: 100.0 mg/kg/injection, schedule: Q01DX001 (ip), vehicle: saline with Tween-80",103 % of control
same,T/C,[2],100 % of control
same,T/C,"endpoint: mean survival time, dose: 200.0 mg/kg/injection, schedule: Q01DX001 (ip), vehicle: saline with Tween-80",92 % of control
same,T/C,[3],103 % of control
OC(C/C=C/c1ccccc1)(c1ccccc1)c1ccccc1,T/C,[2],93 % of control
same,T/C,[3],101 % of control
same,T/C,[4],96 % of control
CN(C)c1ccc(N=Cc2cc[n+](C)cc2)cc1,T/C,"endpoint: mean survival time, dose: 25.0 mg/kg/injection, schedule: Q04DX003 (ip), vehicle: saline",98 % of control
same,T/C,"endpoint: mean survival time, dose: 50.0 mg/kg/injection, schedule: Q04DX003 (ip), vehicle: saline",102 % of control
same,T/C,"endpoint: mean survival time, dose: 100.0 mg/kg/injection, schedule: Q04DX003 (ip), vehicle: saline",102 % of control
COc1cc(C)c(Cl)[n+]([O-])n1,T/C,"endpoint: mean survival time, dose: 3.13 mg/kg/injection, schedule: Q04DX002 (ip), vehicle: saline with Tween-80",104 % of control
same,T/C,"endpoint: mean survival time, dose: 6.25 mg/kg/injection, schedule: Q04DX002 (ip), vehicle: saline with Tween-80",104 % of control
same,T/C,"endpoint: mean survival time, dose: 12.5 mg/kg/injection, schedule: Q04DX002 (ip), vehicle: saline with Tween-80",97 % of control and 104 % of control
O=C(OC(CN1CCCCC1)CN1CCCc2ccccc21)C(O)C(O)C(O)(CO)C(=O)OC(CN1CCCCC1)CN1CCCc2ccccc21 (centres undefined),T/C,"endpoint: mean survival time, dose: 100.0 mg/kg/injection, schedule: Q04DX003 (ip), vehicle: saline with Tween-80",95 % of control
same,T/C,"endpoint: mean survival time, dose: 200.0 mg/kg/injection, schedule: Q04DX003 (ip), vehicle: saline with Tween-80",91 % of control
N#CSCc1ccc(O)c(C(=O)O)c1,T/C,"endpoint: mean survival time, dose: 10.0 mg/kg/injection, schedule: Q01DX009 (ip), vehicle: saline with Tween-80",94 % of control
same,T/C,[5],105 % of control
same,T/C,"endpoint: mean survival time, dose: 40.0 mg/kg/injection, schedule: Q01DX009 (ip), vehicle: saline with Tween-80",106 % of control
C[Si](C)(CN)CN.O=C([O-])C1(C(=O)[O-])CCC1.[Pt+4],T/C,"endpoint: median survival time, dose: 2.5 mg/kg/injection, schedule: Q04DX003 (ip), vehicle: water",110 % of control
same,T/C,"endpoint: median survival time, dose: 5.0 mg/kg/injection, schedule: Q04DX003 (ip), vehicle: water",107 % of control
same,T/C,"endpoint: median survival time, dose: 10.0 mg/kg/injection, schedule: Q04DX003 (ip), vehicle: water",122 % of control
same,T/C,"endpoint: median survival time, dose: 20.0 mg/kg/injection, schedule: Q04DX003 (ip), vehicle: water",151 % of control
same,T/C,"endpoint: median survival time, dose: 25.0 mg/kg/injection, schedule: Q04DX003 (ip), vehicle: water",151 % of control
same,T/C,"endpoint: median survival time, dose: 40.0 mg/kg/injection, schedule: Q04DX003 (ip), vehicle: water",164 % of control and 177 % of control
same,T/C,"endpoint: median survival time, dose: 50.0 mg/kg/injection, schedule: Q04DX003 (ip), vehicle: water",175 % of control
same,T/C,"endpoint: median survival time, dose: 60.0 mg/kg/injection, schedule: Q04DX003 (ip), vehicle: water",181 % of control
same,T/C,"endpoint: median survival time, dose: 80.0 mg/kg/injection, schedule: Q04DX003 (ip), vehicle: water",244 % of control
same,T/C,"endpoint: median survival time, dose: 100.0 mg/kg/injection, schedule: Q04DX003 (ip), vehicle: water",175 % of control
NC(N)=N/C(N)=N\c1cnc([N+](=O)[O-])s1,T/C,"endpoint: mean survival time, dose: 75.0 mg/kg/injection, schedule: Q01DX001 (ip), vehicle: saline",96 % of control
same,T/C,"endpoint: mean survival time, dose: 150.0 mg/kg/injection, schedule: Q01DX001 (ip), vehicle: saline",101 % of control
same,T/C,"endpoint: mean survival time, dose: 300.0 mg/kg/injection, schedule: Q01DX001 (ip), vehicle: saline",93 % of control
S=C(N/N=C/c1ccccn1)N/N=C/c1ccccn1,T/C,[5],102 % of control
same,T/C,"endpoint: mean survival time, dose: 33.0 mg/kg/injection, schedule: Q01DX009 (ip), vehicle: saline with Tween-80",117 % of control
same,T/C,[1],113 % of control
same,T/C,"endpoint: mean survival time, dose: 75.0 mg/kg/injection, schedule: Q01DX009 (ip), vehicle: saline with Tween-80",119 % of control and 101 % of control
O=C1NCCN1c1ccccc1[N+](=O)[O-],T/C,"endpoint: mean survival time, dose: 12.5 mg/kg/injection, schedule: Q01DX009 (ip), vehicle: other",96 % of control
same,T/C,"endpoint: mean survival time, dose: 25.0 mg/kg/injection, schedule: Q01DX009 (ip), vehicle: other",91 % of control
same,T/C,"endpoint: mean survival time, dose: 50.0 mg/kg/injection, schedule: Q01DX009 (ip), vehicle: other",96 % of control
same,T/C,"endpoint: mean survival time, dose: 100.0 mg/kg/injection, schedule: Q01DX009 (ip), vehicle: other",108 % of control
same,T/C,"endpoint: mean survival time, dose: 200.0 mg/kg/injection, schedule: Q01DX009 (ip), vehicle: other",101 % of control
O=C(NC(CO)C(O)c1ccc(N=Nc2cccc3ccccc23)cc1)C(Cl)Cl (centres undefined),T/C,[2],100 % of control
same,T/C,[3],101 % of control
same,T/C,[4],101 % of control
Nc1[nH]c(=S)[nH]c(=O)c1NC(=O)C1CC1,T/C,"endpoint: mean survival time, dose: 100.0 mg/kg/injection, schedule: Q01DX009 (ip), vehicle: saline sonified",98 % of control
same,T/C,"endpoint: mean survival time, dose: 200.0 mg/kg/injection, schedule: Q01DX009 (ip), vehicle: saline sonified",92 % of control
same,T/C,"endpoint: mean survival time, dose: 400.0 mg/kg/injection, schedule: Q01DX009 (ip), vehicle: saline sonified",98 % of control
